Patent US20240217963A1, “RECEPTOR-INTERACTING PROTEIN 1 INHIBITORS, PREPARATIONS, AND USES THEREOF” (SIRONAX LTD., priority 2021, published 2024)

Biological target: T1, RIP1 (Homo sapiens, UniProt Q13546)
T1 sequence (Q13546 1-671): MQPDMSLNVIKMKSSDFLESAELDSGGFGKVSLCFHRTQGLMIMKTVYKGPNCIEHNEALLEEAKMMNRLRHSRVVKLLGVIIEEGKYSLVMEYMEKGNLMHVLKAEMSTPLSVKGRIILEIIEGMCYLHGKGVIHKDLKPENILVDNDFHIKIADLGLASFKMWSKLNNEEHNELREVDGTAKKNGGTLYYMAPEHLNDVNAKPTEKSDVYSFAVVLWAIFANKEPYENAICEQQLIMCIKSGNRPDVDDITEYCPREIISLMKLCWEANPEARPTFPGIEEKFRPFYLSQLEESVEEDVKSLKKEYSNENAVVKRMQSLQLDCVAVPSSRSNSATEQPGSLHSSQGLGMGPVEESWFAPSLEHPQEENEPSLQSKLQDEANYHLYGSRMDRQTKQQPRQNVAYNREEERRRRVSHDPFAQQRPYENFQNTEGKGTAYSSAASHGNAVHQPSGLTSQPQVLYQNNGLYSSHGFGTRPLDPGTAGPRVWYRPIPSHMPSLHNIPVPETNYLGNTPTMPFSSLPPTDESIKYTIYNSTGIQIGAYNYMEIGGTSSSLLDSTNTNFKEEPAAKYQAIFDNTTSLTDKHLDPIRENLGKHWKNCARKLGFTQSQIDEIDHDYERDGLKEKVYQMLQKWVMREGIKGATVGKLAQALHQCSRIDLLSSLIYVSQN
Assay: Cellular RIP1 inhibitory activity: HT-29 necroptosis (TNFα/SMAC mimetic/zVAD-FMK) CellTiter-Glo viability assay
Format: cell-based
Conditions: HT-29 cells, TNF-α 10 ng/ml + SMAC mimetic 6 μM + zVAD-FMK 10 μM, 20 hours, geometric mean, read-out: EC50 Values of in vitro Cellular RIP1 Inhibitory Activity

Compound | EC50 [nM]
Cc1cnn(C)c1-c1nc(N2CCC(C(=O)N(C)Cc3cc(C)n(C)n3)CC2)ncc1F [Compound 79, N-((1,5-dimethyl-1H-pyrazol-3-yl)methyl)-1-(4-(1,4-dimethyl-1H-pyrazol-5-yl)-5-fluoropyrimidin-2-yl)-N-methylpiperidine-4-carboxamide] | 100 to 1000
Cc1cnn(C)c1-c1nc(N2CCC(C(=O)N(O)Cc3cncc(F)c3)CC2)ncc1F [Compound 37, 1-(4-(1,4-dimethyl-1H-pyrazol-5-yl)-5-fluoropyrimidin-2-yl)-N-((5-fluoropyridin-3-yl)methyl)-N-hydroxypiperidine-4-carboxamide] | 0.1 to 100
Cc1ncc(CN(C)C(=O)C2CCN(c3ncc(F)c(-c4c(C)cnn4C)n3)CC2)s1 [Compound 91, 1-(4-(1,4-dimethyl-1H-pyrazol-5-yl)-5-fluoropyrimidin-2-yl)-N-methyl-N-((2-methylthiazol-5-yl)methyl)piperidine-4-carboxamide] | 0.1 to 100
Cc1nc(C)n(-c2nc(N3CCC(C(=O)N(C)Cc4cc(F)cc(F)c4F)CC3)ncc2F)n1 [Compound 65, 1-(4-(3,5-dimethyl-1H-1,2,4-triazol-1-yl)-5-fluoropyrimidin-2-yl)-N-methyl-N-(2,3,5-trifluorobenzyl)piperidine-4-carboxamide] | 0.1 to 100
Cc1cnn(C)c1-c1nc(N2CCC(C(=O)N(O)Cc3nccs3)CC2)ncc1F [Compound 12, 1-(4-(1,4-dimethyl-1H-pyrazol-5-yl)-5-fluoropyrimidin-2-yl)-N-hydroxy-N-(thiazol-2-ylmethyl)piperidine-4-carboxamide] | 0.1 to 100
Cc1cnn(C)c1-c1nc(N2CCC(C(=O)N(O)Cc3ccc(F)cn3)CC2)ncc1F [Compound 10, 1-(4-(1,4-dimethyl-1H-pyrazol-5-yl)-5-fluoropyrimidin-2-yl)-N-((5-fluoropyridin-2-yl)methyl)-N-hydroxypiperidine-4-carboxamide] | 0.1 to 100
CCN(Cc1ccn(C)n1)C(=O)C1CCN(c2ncc(F)c(-c3c(C)cnn3C)n2)CC1 [Compound 82, 1-(4-(1,4-dimethyl-1H-pyrazol-5-yl)-5-fluoropyrimidin-2-yl)-N-ethyl-N-((1-methyl-1H-pyrazol-3-yl)methyl)piperidine-4-carboxamide] | 0.1 to 100
Cc1cnn(C)c1-c1nc(N2CCC(C(=O)N(C)Cc3cc(F)cc(F)c3F)CC2)ncc1F [Compound 66, 1-(4-(1,4-dimethyl-1H-pyrazol-5-yl)-5-fluoropyrimidin-2-yl)-N-methyl-N-(2,3,5-trifluorobenzyl)piperidine-4-carboxamide] | 0.1 to 100
CCN(Cc1sc(C)nc1C)C(=O)C1CCN(c2ncc(F)c(-c3c(C)cnn3C)n2)CC1 [Compound 70, 1-(4-(1,4-dimethyl-1H-pyrazol-5-yl)-5-fluoropyrimidin-2-yl)-N-((2,4-dimethylthiazol-5-yl)methyl)-N-ethylpiperidine-4-carboxamide] | 1000 to 10000
Cc1cnn(C)c1-c1nc(N2CCC(C(=O)N(O)CC3=CCCCC3)CC2)ncc1F [Compound 48, N-(cyclohex-1-en-1-ylmethyl)-1-(4-(1,4-dimethyl-1H-pyrazol-5-yl)-5-fluoropyrimidin-2-yl)-N-hydroxypiperidine-4-carboxamide] | 0.1 to 100
Cc1cnn(C)c1-c1nc(N2CCC(C(=O)N(O)Cc3ccccn3)CC2)ncc1F [Compound 31, 1-(4-(1,4-dimethyl-1H-pyrazol-5-yl)-5-fluoropyrimidin-2-yl)-N-hydroxy-N-(pyridin-2-ylmethyl)piperidine-4-carboxamide] | 0.1 to 100
Cc1nnc(CNC(=O)C2CCN(c3ncc(F)c(-c4c(C)cnn4C)n3)CC2)s1 [Compound 46, 1-(4-(1,4-dimethyl-1H-pyrazol-5-yl)-5-fluoropyrimidin-2-yl)-N-((5-methyl-1,3,4-thiadiazol-2-yl)methyl)piperidine-4-carboxamide] | 1000 to 10000
Cc1cnn(C)c1-c1nc(N2CCC(C(=O)N(O)Cc3ccnc(F)c3)CC2)ncc1F [Compound 20, 1-(4-(1,4-dimethyl-1H-pyrazol-5-yl)-5-fluoropyrimidin-2-yl)-N-((2-fluoropyridin-4-yl)methyl)-N-hydroxypiperidine-4-carboxamide] | 0.1 to 100
Cc1cnn(C)c1-c1cc(N2CCC(C(=O)N(C)Cc3cc(F)cc(F)c3)CC2)ncn1 [Compound 88, N-(3,5-difluorobenzyl)-1-(6-(1,4-dimethyl-1H-pyrazol-5-yl)pyrimidin-4-yl)-N-methylpiperidine-4-carboxamide] | 0.1 to 100
Cc1cnn(C)c1-c1nc(N2CCC(F)(C(=O)N(O)Cc3cc(F)cc(F)c3)CC2)ncc1F [Compound 17, N-(3,5-difluorobenzyl)-1-(4-(1,4-dimethyl-1H-pyrazol-5-yl)-5-fluoropyrimidin-2-yl)-4-fluoro-N-hydroxypiperidine-4-carboxamide] | 0.1 to 100
CCN(Cc1cnn(C)c1)C(=O)C1CCN(c2ncc(F)c(-c3c(C)cnn3C)n2)CC1 [Compound 84, 1-(4-(1,4-dimethyl-1H-pyrazol-5-yl)-5-fluoropyrimidin-2-yl)-N-ethyl-N-((1-methyl-1H-pyrazol-4-yl)methyl)piperidine-4-carboxamide] | 100 to 1000
CCN(Cc1cscn1)C(=O)C1CCN(c2ncc(F)c(-c3c(C)cnn3C)n2)CC1 [Compound 94, 1-(4-(1,4-dimethyl-1H-pyrazol-5-yl)-5-fluoropyrimidin-2-yl)-N-ethyl-N-(thiazol-4-ylmethyl) piperidine-4-carboxamide] | 0.1 to 100
Cc1nc(C)n(-c2nc(N3CCC(C(=O)N(O)Cc4ncccc4F)CC3)ncc2F)n1 [Compound 13, 1-(4-(3,5-dimethyl-1H-1,2,4-triazol-1-yl)-5-fluoropyrimidin-2-yl)-N-((3-fluoropyridin-2-yl)methyl)-N-hydroxypiperidine-4-carboxamide] | 0.1 to 100
Cc1cnn(C)c1-c1ccc(OC2CC(C(=O)N(O)Cc3cc(F)cc(F)c3)C2)c(F)n1 (centres unmarked) [Compound 54, N-(3,5-difluorobenzyl)-3-((6-(1,4-dimethyl-1H-pyrazol-5-yl)-2-fluoropyridin-3-yl)oxy)-N-hydroxycyclobutane-1-carboxamide] | 100 to 1000
Cc1cnn(C)c1-c1cc(N2CCC(C(=O)N(C)Cc3nccs3)CC2)c(F)cn1 [Compound 86, 1-(2-(1,4-dimethyl-1H-pyrazol-5-yl)-5-fluoropyridin-4-yl)-N-methyl-N-(thiazol-2-ylmethyl)piperidine-4-carboxamide] | 0.1 to 100
Cc1cnn(C)c1-c1nc(N2CCC(C(=O)N(O)Cc3cnco3)CC2)ncc1F [Compound 23, 1-(4-(1,4-dimethyl-1H-pyrazol-5-yl)-5-fluoropyrimidin-2-yl)-N-hydroxy-N-(oxazol-5-ylmethyl)piperidine-4-carboxamide] | 0.1 to 100
[2H]C([2H])([2H])N(C(=O)C1CCN(c2ncc(F)c(-n3nc(C)nc3C)n2)CC1)C([2H])([2H])c1cc(F)cc(F)c1F [Compound 76, 1-(4-(3,5-dimethyl-1H-1,2,4-triazol-1-yl)-5-fluoropyrimidin-2-yl)-N-(methyl-d3)-N-((2,3,5-trifluorophenyl)methyl-d2)piperidine-4-carboxamide] | 0.1 to 100
Cc1cnn(C)c1-c1nc(N2CCC(C(=O)N(O)Cc3ccnn3C)CC2)ncc1F [Compound 27, 1-(4-(1,4-dimethyl-1H-pyrazol-5-yl)-5-fluoropyrimidin-2-yl)-N-hydroxy-N-((1-methyl-1H-pyrazol-5-yl)methyl)piperidine-4-carboxamide] | 100 to 1000
